Experiments:
[1] = biological target: T1, human B1R receptor (hB1R) (Homo sapiens, UniProt P46663); assay: FLIPR Ca2+ functional study on bradykinin receptor 1, hB1R cells (CHO K1); type: cell-based; conditions: CHO-K1, 10 μM test substance; CHO K1 cells with human B1R; agonist Lys-Des-Arg9-bradykinin at EC80; read-out: B1R antagonism, human [10 μM] % inhibition
T1 construct: expressed in transfected cells; host or cells: CHO K1 cells, stably transfected
T1 sequence (P46663 1-353): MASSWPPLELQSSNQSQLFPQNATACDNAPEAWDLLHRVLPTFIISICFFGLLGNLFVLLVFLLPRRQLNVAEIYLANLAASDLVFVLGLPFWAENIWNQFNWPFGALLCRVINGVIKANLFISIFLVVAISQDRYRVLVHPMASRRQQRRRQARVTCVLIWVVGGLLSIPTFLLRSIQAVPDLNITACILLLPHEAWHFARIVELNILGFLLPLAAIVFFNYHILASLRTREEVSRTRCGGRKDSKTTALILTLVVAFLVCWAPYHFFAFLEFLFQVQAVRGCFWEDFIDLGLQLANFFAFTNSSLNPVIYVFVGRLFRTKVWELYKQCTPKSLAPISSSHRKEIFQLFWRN
Procedure, shortened: (§1)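 Stably transfected CHO K1 cells loaded with Fluo-4; FLIPR Ca2+ fluorescence (ex 488/em 540 nm, peak counts). Compounds (10 μM, or concentration series for IC50) preincubated 10–20 min, then EC80 agonist added (human: Lys-Des-Arg9-bradykinin; rat: Des-Arg9-bradykinin); % inhibition versus maximum achievable, n=2–3, N≥2.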

[2] = biological target: T2, B1R receptor of the rat (rB1R) (Rattus norvegicus, UniProt P97583); assay: FLIPR Ca2+ functional study on bradykinin receptor 1, rB1R cells (CHO K1); type: cell-based; conditions: 10 μM test substance; CHO K1 cells with rat B1R; agonist Des-Arg9-bradykinin at EC80; read-out: B1R antagonism, rat [10 μM] % inhibition
T2 construct: expressed in transfected cells; host or cells: CHO K1 cells, stably transfected
T2 sequence (P97583 1-337): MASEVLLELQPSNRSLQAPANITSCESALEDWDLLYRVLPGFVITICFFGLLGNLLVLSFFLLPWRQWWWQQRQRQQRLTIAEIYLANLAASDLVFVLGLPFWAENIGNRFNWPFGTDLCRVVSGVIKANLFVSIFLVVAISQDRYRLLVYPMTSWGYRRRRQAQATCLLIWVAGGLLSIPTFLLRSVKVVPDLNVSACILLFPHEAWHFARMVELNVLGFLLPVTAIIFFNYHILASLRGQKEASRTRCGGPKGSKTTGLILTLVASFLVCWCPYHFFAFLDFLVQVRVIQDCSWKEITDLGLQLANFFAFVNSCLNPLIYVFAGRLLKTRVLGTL
Procedure, shortened: as §1

Structure (SMILES)	inhibition at 10 µM [1]	inhibition at 10 µM [2]
O=C(Nc1ccc(Cl)c(Cl)c1)N1CCc2onc(C(=O)N3CCC4(CC3)CCN(c3ccncc3)CC4)c2C1 [Compound G-46, N-(3,4-Dichlorophenyl)-3-(9-(pyridin-4-yl)-3,9-diazaspiro[5.5]undecane-3-carbonyl)-6,7-dihydroisoxazolo[4,5-c]pyridine-5(4H)-carboxamide]	35%	57%
Cc1ccc(S(=O)(=O)N2CCc3ccc(C(=O)N4CCC5(CC4)CCN(c4ccncc4)CC5)cc3C2)c2ccccc12 [Compound G-47, (2-(4-Methylnaphthalin-1-ylsulfonyl)-1,2,3,4-tetrahydroisoquinolin-7-yl)(9-(pyridin-4-yl)-3,9-diazaspiro[5.5]undecan-3-yl)methanone]	72%	80%
COc1ccc(S(=O)(=O)N2CCc3ccc(C(=O)N4CCC5(CC4)CCN(c4ccncc4)CC5)cc3C2)c2ccccc12 [Compound G-48, (2-(4-Methoxynaphthalin-1-ylsulfonyl)-1,2,3,4-tetrahydroisoquinolin-7-yl)(9-(pyridin-4-yl)-3,9-diazaspiro[5.5]undecan-3-yl)methanone]	73%	95%
O=C(c1ccc2c(c1)CN(C(=O)C(c1ccccc1)c1ccccc1)CC2)N1CCC2(CC1)CCN(c1ccncc1)CC2 [Compound G-49, 2,2-Diphenyl-1-(7-(9-(pyridin-4-yl)-3,9-diazaspiro[5.5]undecane-3-carbonyl)-3,4-dihydroisoquinolin-2(1H)-yl)ethanone]	99%	106%
O=C(c1ccc2c(c1)CN(S(=O)(=O)c1ccc(Cl)c3ccccc13)CC2)N1CCC2(CC1)CCN(c1ccncc1)CC2 [Compound G-50, (2-(4-Chloronaphthalin-1-ylsulfonyl)-1,2,3,4-tetrahydroisoquinolin-7-yl)(9-(pyridin-4-yl)-3,9-diazaspiro[5.5]undecan-3-yl)methanone]	69%	91%
Cc1cccc(Cl)c1S(=O)(=O)N1CCCc2ccc(CC(=O)N3CCC4(CCN(c5ccncc5)CC4)C3)cc21 [Compound G-51, 2-(1-(2-Chloro-6-methylphenylsulfonyl)-1,2,3,4-tetrahydroquinolin-7-yl)-1-(8-(pyridin-4-yl)-2,8-diazaspiro[4.5]decan-2-yl)ethanone]	100%	106%
O=C(Cc1ccc2c(c1)N(S(=O)(=O)c1cccc3ccccc13)CCC2)N1CCC2(CCN(c3ccncc3)CC2)C1 [Compound G-52, 2-(1-(Naphthalin-1-ylsulfonyl)-1,2,3,4-tetrahydroquinolin-7-yl)-1-(8-(pyridin-4-yl)-2,8-diazaspiro[4.5]decan-2-yl)ethanone]	98%	106%
O=C(Cc1ccc2c(c1)N(S(=O)(=O)c1cccc3ccccc13)CCC2)N1CCC2(CCN(c3ccncc3)C2)C1 (centres unmarked) [Compound G-53, 2-(1-(Naphthalin-1-ylsulfonyl)-1,2,3,4-tetrahydroquinolin-7-yl)-1-(7-(pyridin-4-yl)-2,7-diazaspiro[4.4]nonan-2-yl)ethanone]	95%	105%
O=C(Cc1ccc2c(c1)N(S(=O)(=O)c1cccc3ccccc13)CCC2)N1CCC2(CCC(N3CCC3)CC2)CC1 [Compound G-54, 1-(9-(Azetidin-1-yl)-3-azaspiro[5.5]undecan-3-yl)-2-(1-(naphthalin-1-ylsulfonyl)-1,2,3,4-tetrahydroquinolin-7-yl)ethanone]	57%	55%
O=C(Nc1ccc(Cl)c(Cl)c1)N1CCc2ccc(C(=O)N3CCC4(CC3)CCN(c3ccncc3)CC4)cc2C1 [Compound G-55, N-(3,4-dichlorophenyl)-7-(9-(pyridin-4-yl)-3,9-diazaspiro[5.5]undecane-3-carbonyl)-3,4-dihydroisoquinoline-2(1H)-carboxamide]	92%	94%
O=C(c1ccc2c(c1)CN(S(=O)(=O)c1ccc(F)c3ccccc13)CC2)N1CCC2(CC1)CCN(c1ccncc1)CC2 [Compound G-56, (2-(4-Fluoronaphthalin-1-ylsulfonyl)-1,2,3,4-tetrahydroisoquinolin-7-yl)(9-(pyridin-4-yl)-3,9-diazaspiro[5.5]undecan-3-yl)methanone]	87%	90%
O=C(Cc1ccc2c(c1)N(S(=O)(=O)c1ccccc1C(F)(F)F)CCC2)N1CCC2(CCN(c3ccncc3)CC2)C1 [Compound G-57, 1-(8-(Pyridin-4-yl)-2,8-diazaspiro[4.5]decan-2-yl)-2-(1-(2-(trifluoromethyl)phenylsulfonyl)-1,2,3,4-tetrahydroquinolin-7-yl)ethanone]	100%	101%
Cc1ccc(C(=O)N2CCc3ccc(C(=O)N4CCC5(CC4)CCN(c4ccncc4)CC5)cc3C2)s1 [Compound G-58, (5-Methylthiophen-2-yl)(7-(9-(pyridin-4-yl)-3,9-diazaspiro[5.5]undecane-3-carbonyl)-3,4-dihydroisoquinolin-2(1H)-yl)methanone]	100%	91%
O=C(c1ccc2c(c1)CN(C(=O)c1cc3ccccc3s1)CC2)N1CCC2(CC1)CCN(c1ccncc1)CC2 [Compound G-59, Benzo[b]thiophen-2-yl(7-(9-(pyridin-4-yl)-3,9-diazaspiro[5.5]undecane-3-carbonyl)-3,4-dihydroisoquinolin-2(1H)-yl)methanone]	86%	95%
O=C(c1ccc2c(c1)CN(C(=O)c1cc3c(s1)CCC3)CC2)N1CCC2(CC1)CCN(c1ccncc1)CC2 [Compound G-60, (5,6-Dihydro-4H-cyclopenta[b]thiophen-2-yl)(7-(9-(pyridin-4-yl)-3,9-diazaspiro[5.5]undecane-3-carbonyl)-3,4-dihydroisoquinolin-2(1H)-yl)methanone]	98%	91%
COc1ccc2c(Cl)c(C(=O)N3CCc4ccc(C(=O)N5CCC6(CC5)CCN(c5ccncc5)CC6)cc4C3)sc2c1 [Compound G-61, (3-Chloro-6-methoxybenzo[b]thiophen-2-yl)(7-(9-(pyridin-4-yl)-3,9-diazaspiro[5.5]undecane-3-carbonyl)-3,4-dihydroisoquinolin-2(1H)-yl)methanone]	77%	91%
O=C(c1ccc2c(c1)CN(S(=O)(=O)c1cccc3c(Cl)cccc13)CC2)N1CCC2(CC1)CCN(c1ccncc1)CC2 [Compound G-62, (2-(5-Chloronaphthalin-1-ylsulfonyl)-1,2,3,4-tetrahydroisoquinolin-7-yl)(9-(pyridin-4-yl)-3,9-diazaspiro[5.5]undecan-3-yl)methanone]	44%	78%
CC(C)(C)c1ccc(C(=O)N2CCc3ccc(C(=O)N4CCC5(CC4)CCN(c4ccncc4)CC5)cc3C2)s1 [Compound G-63, (5-tert-Butylthiophen-2-yl)(7-(9-(pyridin-4-yl)-3,9-diazaspiro[5.5]undecane-3-carbonyl)-3,4-dihydroisoquinolin-2(1H)-yl)methanone]	83%	80%
O=C(Cc1ccc2c(c1)N(C(=O)c1ccccc1Cl)CCC2)N1CCC2(CC1)CCN(c1ccncc1)CC2 [Compound G-64, 2-[1-(2-Chloro-benzoyl)-1,2,3,4-tetrahydro-quinolin-7-yl]-1-(9-pyridin-4-yl-3,9-diazaspiro[5.5]undecan-3-yl)-ethanone]	59%	96%
Cc1ccc(Cl)c(S(=O)(=O)N2CCCc3ccc(CC(=O)N4CCC5(CC4)CCN(c4ccncc4)CC5)cc32)c1Cl [Compound G-66, 2-[1-[(2,6-Dichloro-3-methyl-phenyl)sulfonyl]-1,2,3,4-tetrahydro-quinolin-7-yl]-1-(9-pyridin-4-yl-3,9-diazaspiro[5.5]undecan-3-yl)-ethanone]	98%	100%
COc1cc(C)c(S(=O)(=O)N2Cc3ccc(C(=O)N4CCC5(CC4)CCN(c4ccncc4)CC5)cc3C2)c(C)c1 [Compound G-67, [2-[(4-Methoxy-2,6-dimethyl-phenyl)sulfonyl]-2,3-dihydro-1H-isoindol-5-yl]-(9-pyridin-4-yl-3,9-diazaspiro[5.5]undecan-3-yl)-methanone]	100%	101%
Cc1cccc(Cl)c1S(=O)(=O)N1Cc2ccc(C(=O)N3CCC4(CC3)CCN(c3ccncc3)CC4)cc2C1 [Compound G-68, [2-[(2-Chloro-6-methyl-phenyl)sulfonyl]-2,3-dihydro-1H-isoindol-5-yl]-(9-pyridin-4-yl-3,9-diazaspiro[5.5]undecan-3-yl)-methanone]	90%	81%

Reference: US8357717B2, “Spiro group-containing amide compounds having bradykinin 1 receptor (B1R) activity” (Gruenenthal GmbH, priority 2009, dated 2013)
